According to publication PMC12203697, “Bioactive constituents from the edible seaweed Halymenia hawaiiana (Rhodophyta)” (Pharmaceutical Biology, 2025):
Values after ≈ are worked out from the molar mass of the structure shown. Counter-ions that a name gives are not always drawn. Like-named read-outs stand apart in the source and are kept apart here. Values belong to the molecule of their own block, whether it stands above or below them.

Assays:
[1] = Ferric-reducing antioxidant power (FRAP) assay
Experimental: The FRAP assay was used to evaluate antioxidant activity based on the ability of the sample to reduce Fe^3+-TPTZ (2,4,6-tris(2-pyridyl)-S-triazine) to Fe^2+-TPTZ (Benzie and Strain [1996]). This reduction results in a color change from colorless to blue. The absorbance was measured at 593 nm using a Microplate Reader (BioTek ELx800 Instruments Inc. Winooski, Vermont, USA) with the Gen 5 software for FRAP value calculations. A ferrous sulfate heptahydrate (FeSO4 · 7H2O) (Cat. No. 215422, Sigma-Aldrich, USA) standard curve, ranging from 1000 µM to 50 µM, was prepared for the assay. The FRAP reagent consists of 300 mM sodium acetate buffer (pH 3.6) (Cat. No. 90358, Sigma-Aldrich, USA), 10 mM TPTZ solution (Cat. No. T1253, Sigma-Aldrich, USA), and 20 mM ferric (III) chloride hexahydrate (FeCl3 · 6H2O) (Cat. No. 236489, Sigma-Aldrich, USA) in a 10:1:1 ratio, respectively, and heated to 37 °C for ten minutes before use. A blank was measured at 593 nm with 150 µL FRAP reagent added to each well of a 96-well microtiter plate. Samples (20 µL of each sample) (1, 0.5, 0.25 mg/mL) and ascorbic acid (Sigma-Aldrich, Cat. No. A4403) positive control (1 mg/mL) were added in triplicates. Reducing capacity was expressed by FRAP values in an µM FeSO4/µg sample unit.

MRSA HBP10 = test: Antibacterial MIC, broth microdilution with resazurin; assay type: cell-based, Staphylococcus aureus
Source text: (§1) Methicillin-resistant Staphylococcus aureus (MRSA), methicillin-susceptible S. aureus (MSSA), and Gram-negative clinical isolates of bacteria [Escherichia coli (9637) and Serratia marcescens ATCC 13880] were used for this study. […] MSSA HBP10, MSSA LUU7, MSSA R113, S. aureus ONE9, and MSSA POB2 were isolated in Hawaiʻi (Gerken et al. [2021]). Mueller Hinton Broth (MHB, GTIN:00382902979630, Becton, Dickinson and Company, Franklin Lakes, NJ, USA) and Mueller Hinton Agar (MHA, GTIN:00382902252504, Becton, Dickinson and Company, Franklin Lakes, NJ, USA,) were used for bacterial inoculation. MRSA was a pathogen strain causing hospital-acquired infections in 1982. This strain easily acquires resistance to antibiotics, such as vancomycin. MSSA strains isolated from the Island of Hawaiʻi included: Honolʻii Beach Park (HBP10) carry the genes erm(C), aph(3′)-III, and mecA, which provide resistance to macrolide, aminoglycoside, and beta-lactam antibiotics, respectively; Wailuku River (LUU7) which contains the blaZ gene (beta-lactam resistance) (Gerken et al. [2021]). Richardson’s Beach Park (R113) and Onekahakaha (ONE9) which is known for its virulence factors (hlgA, hlgB, hlgC, lukD, and lukE).
(§2) The minimum inhibitory concentrations (MICs) were determined using a two-fold serial dilution method with MHB following the recommendations of the Clinical and Laboratory Standards Institute (CLSI [2012]; Elshikh et al. [2016]). In brief, serial two-fold dilutions of the samples in DMSO were mixed with MHB in a 96-well microplate. Then, 50 µL of bacteria suspension was added to each well, resulting in a final concentration of 1 × 10^4 colony-forming units/well. The plates were incubated at 35–37 °C for 18–24 hr. After incubation, 10 µL of 0.18% resazurin (Cat. No. R7017, Sigma-Aldrich, USA) was added to each well (Elshikh et al. [2016]). The MIC was assessed within 2–3 hr after the addition of resazurin. All antimicrobial assays were performed in triplicate, using vancomycin (Cat. No. SBR00001, Sigma-Aldrich, USA) and gentamicin (Cat. No. G1397, Sigma-Aldrich, USA) as standard controls.

MRSA POB2 = test: as above; assay type: cell-based, Staphylococcus aureus
Source text: as §1, §2

S. marcescent = test: as above; assay type: cell-based, Serratia marcescens; conditions: Gram-negative
Source text: as §1, §2

E. coli = test: as above; assay type: cell-based; conditions: Escherichia coli, Gram-negative
Source text: as §1, §2

[2] = system: LPS-induced nitric oxide (NO) production in RAW 264.7 cells; test: Inhibition of NO generation in LPS-induced RAW 264.7 cells (Griess); assay type: cell-based, murine; conditions: Mus musculus, RAW264.7; RAW 264.7 cells, LPS 1 μg/mL, adjusted for cell viability; read-out: IC50, inhibition of LPS-induced NO production
Experimental: The nitrite concentration in the culture medium was measured to indicate nitric oxide (NO) production as previously described (Min et al. [2009]). The murine macrophage RAW 264.7 cell line was obtained from ATCC, Manassas, VA, USA, and maintained in Dulbecco’s modified Eagle’s medium supplemented with 10% heat-inactivated FBS (Cat. No. A5670801, Gibco BRL Co, Grand Island, NY, USA), penicillin G (100 units/mL) (Cat. No. P7794, Sigma-Aldrich, USA), streptomycin (100 µg/mL) (Cat. No. S9137, Sigma-Aldrich, USA), and L-glutamine (2 mM) (Cat. No. 25030081, Gibco BRL Co, Grand Island, NY, USA). In brief, RAW 264.7 cells were seeded at a density of 4 × 10^4 cells/well in phenol red-free media (Cat. No. 11835030, Gibco, USA) in a 96-well plate, and incubated in a humidified incubator with 5% CO2 at 37 °C for 24 hr. […] The concentration of nitric oxide production was assessed using the Griess reagent, which consists of a 1:1 (v/v) mixture of 1% sulfanilamide (Cat No. A13001, Alfa Aesar, Massachusetts, USA) in H3PO4 and N-(1-naphthyl)ethylenediamine dihydrochloride (Cat. No. 102397, MP Biomedicals, USA). Absorbance was recorded with a microplate reader (SynergyMx, BioTeK, Winooski, VT, USA) at 540 nm. A standard curve was created using sodium nitrite (1–100 μM) (Cat. No. 44227, Alfa Aesar, Massachusetts, USA). A sulforhodamine B (SRB) assay was employed to assess the cellular viability of the samples with RAW 264.7 cells under a similar experimental setup. The final % inhibition of NO production was adjusted based on cell viability.

S. aureus CART817 = test: Antibacterial MIC, broth microdilution with resazurin; assay type: cell-based; conditions: Staphylococcus aureus, CART817
Experimental: as §2

S. aureus NEWMAN = test: as above; assay type: cell-based, Staphylococcus aureus; conditions: Staphylococcus aureus, NEWMAN
Source text: as §1, §2

MRSA USA300 = test: as above; assay type: cell-based; conditions: Staphylococcus aureus
Source text: as §1, §2

MSSA LUU7 = test: as above; assay type: cell-based; conditions: Staphylococcus aureus, MSSA
Source text: as §1, §2

MSSA R113 = test: as above; assay type: cell-based; conditions: Staphylococcus aureus, MSSA
Source text: as §1, §2

S. aureus 8325-4 = test: as above; assay type: cell-based; conditions: Staphylococcus aureus, 83254
Source text: as §1, §2

S. aureus ONE9 = test: as above; assay type: cell-based; conditions: Staphylococcus aureus, ONE9
Source text: as §1, §2

[3] = system: A549 human lung carcinoma epithelial cells; test: SRB cytotoxicity assay, A549 cells; conditions: read-out: IC50, cytotoxicity against A549 cells; SRB assay, 72 h exposure
Experimental: After incubation, cells were fixed with trichloroacetic acid (Cat. No. T4885, Sigma-Aldrich, USA), stained with SRB (Cat. No. S9012, Sigma-Aldrich, USA), and the absorbance was measured at 515 nm. Percent cell death was calculated using the following equation: % Cell death=(ODc−OD0)‐(ODs−OD0)/(ODc−OD0)×100
OD0 = Optical density of cells before treatment (baseline reading).
ODC = Optical density of untreated control cells after 72 h.
ODS = Optical density of cells treated with the test sample after 72 h.
Non-linear regression analysis was performed using GraphPad Prism to calculate the IC50 value. This value reflects the concentration needed to inhibit cell growth by 50%.
All data are presented as mean ± standard error of the mean (SEM) and were collected from three separate experiments. Statistical analyses were conducted using Student’s t-test or ANOVA, followed by Tukey’s multiple comparisons test. Significance is indicated by *p < 0.05, **p < 0.01, and ***p < 0.001.

Structure (SMILES): [H]/N=C(/NC)NCCC[C@H](N)C(=O)O [L-NMMA, L-N-Monomethyl Arginine citrate, reference compound]
IC50 [2]: 43.5 ± 1.8 µM

Structure (SMILES): CN[C@H](CC(C)C)C(=O)N[C@H]1C(=O)N[C@@H](CC(N)=O)C(=O)N[C@H]2C(=O)N[C@H]3C(=O)N[C@H](C(=O)N[C@H](C(=O)O)c4cc(O)cc(O)c4-c4cc3ccc4O)[C@H](O)c3ccc(c(Cl)c3)Oc3cc2cc(c3O[C@@H]2O[C@H](CO)[C@@H](O)[C@H](O)[C@H]2O[C@H]2C[C@](C)(N)[C@H](O)[C@H](C)O2)Oc2ccc(cc2Cl)[C@H]1O [Vancomycin, vancomycin, reference compound]
MIC (S. aureus CART817): 1 µg/mL (≈ 0.69 µM) | MIC (MRSA HBP10; Staphylococcus aureus, MRSA): 1 µg/mL (≈ 0.69 µM) | MIC (MRSA POB2; Staphylococcus aureus, MRSA): 0.5 µg/mL (≈ 0.345 µM) | MIC (S. aureus NEWMAN): 0.5 µg/mL (≈ 0.345 µM) | MIC (MRSA USA300): 0.5 µg/mL (≈ 0.345 µM) | MIC (MSSA LUU7): 0.5 µg/mL (≈ 0.345 µM) | MIC (MSSA R113): 0.5 µg/mL (≈ 0.345 µM) | MIC (S. aureus 8325-4): 0.5 µg/mL (≈ 0.345 µM) | MIC (S. aureus ONE9): 0.5 µg/mL (≈ 0.345 µM)

Structure (SMILES): N.N.[Cl][Pt][Cl] [cisplatin, Cisplatin, reference compound]
IC50 [3]: 4.2 ± 0.3 µM

The next lines start with results.

MIC (MRSA HBP10; MRSA HBP10, Gram-positive): Inactive | MIC (MRSA POB2; MRSA POB2, Gram-positive): Inactive | MIC (S. marcescent): Inactive
Structure (SMILES): CCCCCCCCC1CC1CCCCCCCC(=O)O (stereo not drawn) [Compound 7, dihydrosterculic acid]
FRAP ([1]; FeSO4 standard curve): 230.06 µM | FRAP ([1]; µM FeSO4/µg sample): 2.88 ± 0.03 µM/µg

MIC (MRSA HBP10; MRSA HBP10, Gram-positive): Inactive | MIC (MRSA POB2; MRSA POB2, Gram-positive): Inactive | MIC (S. marcescent): Inactive
Structure (SMILES): CCCCCCCC/C=C/CCCCCCC(O)C(=O)OC (stereo not drawn) [Compound 8, methyl (9E)-2-hydroxy-9-octadecenoate]

MIC (E. coli): 0.25 µg/mL (≈ 0.523 µM) | MIC (S. marcescent; Serratia marcescens, read-out: MIC): 0.25 µg/mL (≈ 0.523 µM)
Structure (SMILES): CNC(C)C1CCC(N)C(OC2C(N)CC(N)C(OC3OCC(C)(O)C(NC)C3O)C2O)O1 (stereo not drawn) [Gentamicin, gentamicin, reference compound]
